Measurements: patent publication US8362004B2, “Piperazine analogs as broad-spectrum influenza antivirals” (priority 2010, dated 2013)
Where two headings read alike, the source gives them in different places.

What was measured:
[1] = system: A/H5N1/Duck_PA; experiment: microbe, parasite or virus in culture; assay type: cell-based, influenza A
[2] = system: A/H5N1/Duck_MN; experiment: microbe, parasite or virus in culture; assay type: cell-based, influenza A
[3] = system: A/H5N1/Gull_PA; experiment: microbe, parasite or virus in culture; assay type: cell-based, influenza A
[4] = system: influenza A/Brisbane/10/2007; experiment: Antiviral assay in MDCK cells, viral neuraminidase (MUNANA) readout, A/H3N2/Brisbane; assay type: cell-based; conditions: read-out: A/H3N2/Brisbane Activity
[5] = system: Influenza A/Solomon Islands/3/06; experiment: Antiviral assay in MDCK cells, viral neuraminidase (MUNANA) readout, A/H1N1/Solomon Islands; assay type: cell-based; conditions: read-out: A/H1N1/Solomon Islands Activity
[6] = system: influenza A/WSN/33; experiment: Antiviral assay in MDCK cells, viral neuraminidase (MUNANA) readout, A/H1N1/WSN; assay type: cell-based; conditions: read-out: A/H1N1/WSN Activity
[7] = Influenza A virus, H5N1, read-out: A/H5N1/Duck_PA
[8] = Influenza A virus, H5N1, read-out: A/H5N1/Duck_MN
[9] = Influenza A virus, H5N1, read-out: A/H5N1/Gull_PA
[10] = MDCK cells, MOI 0.001, 48 hrs post infection, viral NA activity
[11] = Influenza A virus, H3N2, MDCK, 48 h
[12] = Influenza A virus, H1N1, MDCK, 48 h

SMILES	EC50 [4, 10]	EC50 [5, 10]	EC50 [6, 10]	other results
COc1ccc(C(=O)Nc2cc(N3CCN(C(=O)c4c(-c5cccc6ccccc56)noc4C)CC3)c(Cl)cc2[N+](=O)[O-])cc1 [Example 77, N-(4-chloro-5-(4-(5-methyl-3-(naphthalen-1-yl)isoxazole-4-carbonyl)piperazin-1-yl)-2-nitrophenyl)-4-methoxybenzamide]				EC50 [1, 7]: < 1000 nM; EC50 [2, 8]: < 1000 nM; EC50 [3, 9]: < 100 nM
COc1ccccc1-c1noc(C)c1C(=O)N1CCN(c2cc(NC(=O)c3ccco3)c([N+](=O)[O-])cc2Cl)CC1 [Example 8]				EC50 ([1]; read-out: A/H5N1/Duck_PA): < 100 nM; EC50 ([2]; read-out: A/H5N1/Duck_MN): < 1000 nM; EC50 ([3]; read-out: A/H5N1/Gull_PA): < 100 nM
COc1ccccc1-c1noc(C)c1C(=O)N1CCN(c2cc(NC(=O)c3ccc(C)cc3)c([N+](=O)[O-])cc2Cl)CC1 [Example 24]	< 10000 nM	< 100 nM	< 100 nM	
COc1ccccc1-c1n[nH]c(C)c1C(=O)N1CCN(c2cc(NC(=O)c3ccc(N(C)C)cc3)c([N+](=O)[O-])cc2Cl)CC1 [Example 70, N-(4-chloro-5-(4-(3-(2-methoxyphenyl)-5-methyl-1H-pyrazole-4-carbonyl)piperazin-1-yl)-2-nitrophenyl)-4-(dimethylamino)benzamide]				EC50 [4, 11]: < 10000 nM; EC50 [5, 12]: < 1000 nM; EC50 ([6]; Influenza A virus, MDCK, 48 h): < 100 nM
COc1ccccc1-c1noc(C)c1C(=O)N1CCN(c2cc(NC(=O)c3ccc(N(C)C)cc3)c(C#N)cc2Cl)CC1 [Example 65]	< 10000 nM	< 1000 nM	< 100 nM	
COc1ccccc1-c1noc(C)c1C(=O)N1CCN(c2cc(NC(=O)c3ccc(N(C)C)cc3)c(C)cc2Br)CC1 [Example 54]	< 10000 nM	< 1000 nM	< 1000 nM	
COc1ccccc1-c1noc(C)c1C(=O)N1CCN(c2cc(NC(=O)c3ccc(OC(F)F)cc3)c([N+](=O)[O-])cc2Cl)CC1 [Example 13]				EC50 ([1]; read-out: A/H5N1/Duck_PA): < 1000 nM; EC50 ([2]; read-out: A/H5N1/Duck_MN): < 1000 nM; EC50 ([3]; read-out: A/H5N1/Gull_PA): < 100 nM
COc1ccccc1-c1noc(C)c1C(=O)N1CCN(c2cc(NC(=O)c3ccc(N4CCCC4=O)cc3)c([N+](=O)[O-])cc2Cl)CC1 [Example 47, N-(4-chloro-5-(4-(3-(2-methoxyphenyl)-5-methylisoxazole-4-carbonyl)piperazin-1-yl)-2-nitrophenyl)-4-(2-oxopyrrolidin-1-yl)benzamide]				EC50 [4, 11]: < 1000 nM; EC50 [5, 12]: < 100 nM; EC50 ([6]; Influenza A virus, MDCK, 48 h): < 100 nM
COc1ccccc1-c1nnn(C)c1C(=O)N1CCN(c2cc(NC(=O)c3ccc(N4CCCC4=O)cc3)c([N+](=O)[O-])cc2C#N)CC1 [Example 122, N-(4-cyano-5-(4-(4-(2-methoxyphenyl)-1-methyl-1H-1,2,3-triazole-5-carbonyl)piperazin-1-yl)-2-nitrophenyl)-4-(2-oxopyrrolidin-1-yl)benzamide]				EC50 [4, 11]: < 1000 nM; EC50 [5, 12]: < 1000 nM; EC50 ([6]; Influenza A virus, MDCK, 48 h): < 1000 nM
COc1ccccc1-c1nnn(C)c1C(=O)N1CCN(c2cc(NC(=O)c3ccc(N4CCCC4=O)cc3)c([N+](=O)[O-])cc2Cl)CC1 [Example 84, N-(4-chloro-5-(4-(4-(2-methoxyphenyl)-1-methyl-1H-1,2,3-triazole-5-carbonyl)piperazin-1-yl)-2-nitrophenyl)-4-(2-oxopyrrolidin-1-yl)benzamide]				EC50 [4, 11]: < 100 nM; EC50 [5, 12]: < 100 nM; EC50 ([6]; Influenza A virus, MDCK, 48 h): < 100 nM
COc1ccccc1-c1noc(C)c1C(=O)N1CCN(c2cc(NC(=O)c3ccc(SC)cc3)c([N+](=O)[O-])cc2Cl)CC1 [Example 11]				EC50 ([1]; read-out: A/H5N1/Duck_PA): < 100 nM; EC50 ([2]; read-out: A/H5N1/Duck_MN): < 1000 nM; EC50 ([3]; read-out: A/H5N1/Gull_PA): < 100 nM
COc1ccccc1-c1nnn(C)c1C(=O)N1CCN(c2cc(NC(=O)c3ccc(N4CCCS4(=O)=O)cc3)c(Br)cc2Cl)CC1 [Example 120, N-(4-chloro-5-(4-(4-(2-methoxyphenyl)-1-methyl-1H-1,2,3-triazole-5-carbonyl)piperazin-1-yl)-2-bromophenyl)-4-(1,1-dioxidoisothiazolidin-2-yl)benzamide]				EC50 [4, 11]: < 10000 nM; EC50 [5, 12]: < 1000 nM; EC50 ([6]; Influenza A virus, MDCK, 48 h): < 1000 nM
COc1ccccc1-c1noc(C)c1C(=O)N1CCN(c2cc(NC(=O)c3ccc(-n4cncn4)cc3)c([N+](=O)[O-])cc2Cl)CC1 [Example 37]	< 1000 nM	< 100 nM	< 100 nM	
COc1ccccc1-c1noc(C)c1C(=O)N1CCN(c2cc(NC(=O)C3CCC3)c([N+](=O)[O-])cc2Cl)CC1 [Example 9]	< 10000 nM	< 1000 nM	< 100 nM	
COc1ccccc1-c1ncn(C)c1C(=O)N1CCN(c2cc(NC(=O)c3ccc(N(C)C)cc3)c([N+](=O)[O-])cc2Cl)CC1 [Example 81]	< 10000 nM	< 100 nM	< 100 nM	
COc1ccccc1-n1ncc(C)c1C(=O)N1CCN(c2cc(NC(=O)c3ccc(N(C)C)cc3)c([N+](=O)[O-])cc2Cl)CC1 [Example 73]	< 1000 nM	< 100 nM	< 1000 nM	
Cc1c[nH]c(-c2ccccc2Cl)c1C(=O)N1CCN(c2cc(NC(=O)c3ccc(N(C)C)cc3)c([N+](=O)[O-])cc2Cl)CC1 [Example 72]	< 1000 nM	< 100 nM	< 100 nM	

SMILES	EC50 [4, 10]	EC50 [5, 10]	EC50 [6, 10]	other results
COc1ccccc1-c1noc(C)c1C(=O)N1CCN(c2cc(NC(=O)c3ccc(-c4nnc(C)o4)cc3)c([N+](=O)[O-])cc2Cl)CC1 [Example 38]	< 100 nM	< 1000 nM	< 1000 nM	
COc1ccccc1-c1noc(C)c1C(=O)N1CCN(c2cc(NC(=O)c3nccs3)c(Cl)cc2Cl)CC1 [Example 56]	< 10000 nM	< 10000 nM	< 1000 nM	
COc1ccc(C(=O)Nc2cc(N3CCN(C(=O)c4c(-c5ccccc5OC)noc4C)CC3)c(C#N)cc2Cl)cc1 [Example 66]	< 10000 nM	< 10000 nM	< 10000 nM	
Cc1onc(-c2cccc3ccccc23)c1C(=O)N1CCN(c2cc(NC(=O)c3nccs3)c([N+](=O)[O-])cc2Cl)CC1 [Example 78, N-(4-chloro-5-(4-(5-methyl-3-(naphthalen-1-yl)isoxazole-4-carbonyl)piperazin-1-yl)-2-nitrophenyl)thiazole-2-carboxamide]				EC50 [1, 7]: < 1000 nM; EC50 [2, 8]: < 1000 nM; EC50 [3, 9]: < 100 nM
COc1ccccc1-c1ncn(C)c1C(=O)N1CCN(c2cc(NC(=O)c3ccc(N(C)C)cc3)c([N+](=O)[O-])cc2C#N)CC1 [Example 124]	< 100 nM	< 100 nM	< 100 nM	
COc1ccccc1-c1noc(C)c1C(=O)N1CCN(c2cc(NC(=O)c3ccc(N(C)C)cc3)c(Cl)cc2Cl)CC1 [Example 55]	< 1000 nM	< 100 nM	< 100 nM	
C=Cc1cc(Cl)c(N2CCN(C(=O)c3c(-c4ccccc4OC)noc3C)CC2)cc1NC(=O)c1ccc(N(C)C)cc1 [Example 125, N-(4-chloro-5-(4-(3-(2-methoxyphenyl)-5-methylisoxazole-4-carbonyl)piperazin-1-yl)-2-vinylphenyl)-4-(dimethylamino)benzamide]				EC50 [4, 11]: < 10000 nM; EC50 [5, 12]: < 1000 nM; EC50 ([6]; Influenza A virus, MDCK, 48 h): < 1000 nM
COc1ccc(C(=O)Nc2cc(N3CCN(C(=O)c4c(-c5ccccc5OC)noc4C)CC3)c(Cl)cc2[N+](=O)[O-])cc1 [Example 1, N-(4-chloro-5-(4-(3-(2-methoxyphenyl)-5-methylisoxazole-4-carbonyl)piperazin-1-yl)-2-nitrophenyl)-4-methoxybenzamide]				EC50 [4, 11]: < 1000 nM; EC50 [5, 12]: < 100 nM; EC50 ([6]; Influenza A virus, MDCK, 48 h): < 100 nM
COc1ccccc1-c1noc(CF)c1C(=O)N1CCN(c2cc(NC(=O)c3ccc(N(C)C)cc3)c(Cl)cc2Cl)CC1 [Example 69, N-(2,4-dichloro-5-(4-(5-(fluoromethyl)-3-(2-methoxyphenyl)isoxazole-4-carbonyl)piperazin-1-yl)phenyl)-4-(dimethylamino)benzamide]				EC50 [4, 11]: < 10000 nM; EC50 [5, 12]: < 1000 nM; EC50 ([6]; Influenza A virus, MDCK, 48 h): < 1000 nM
COc1ccccc1-c1noc(C)c1C(=O)N1CCN(c2cc(NC(=O)c3ccc(N(C)C)cc3)c([N+](=O)[O-])cc2C#N)CC1 [Example 68]	< 100 nM	< 100 nM	< 1000 nM	
COc1ccccc1-c1noc(C)c1C(=O)N1CCN(c2cc(NC(=O)c3ccc(N(C)S(C)(=O)=O)cc3)c([N+](=O)[O-])cc2Cl)CC1 [Example 35]	< 1000 nM	< 100 nM	< 100 nM	
COc1ccccc1-c1noc(C)c1C(=O)N1CCN(c2nc(NC(=O)c3ccc(N(C)C)cc3)c(Cl)cc2Cl)CC1 [Example 52]	< 10000 nM	< 1000 nM	< 1000 nM	
COc1ccccc1-c1nnn(C)c1C(=O)N1CCN(c2cc(NC(=O)c3ccc(N4CCCS4(=O)=O)cc3)c([N+](=O)[O-])cc2Cl)CC1 [Example 92]	< 1000 nM	< 100 nM	< 100 nM	
COc1ccc(C(=O)Nc2cc(N3CCN(C(=O)c4c(-c5ccccc5OC)ncn4C)CC3)c(Cl)cc2[N+](=O)[O-])cc1 [Example 102]	< 10000 nM	< 1000 nM	< 100 nM	
CCOc1ccc(C(=O)Nc2cc(N3CCN(C(=O)c4c(-c5ccccc5OC)noc4C)CC3)c(Cl)cc2[N+](=O)[O-])cc1 [Example 15]				EC50 ([1]; read-out: A/H5N1/Duck_PA): < 1000 nM; EC50 ([2]; read-out: A/H5N1/Duck_MN): < 1000 nM; EC50 ([3]; read-out: A/H5N1/Gull_PA): < 100 nM
COc1ccc(C(=O)Nc2nc(N3CCN(C(=O)c4c(-c5ccccc5OC)noc4C)CC3)c(Cl)cc2[N+](=O)[O-])cc1 [Example 43]	< 100 nM	< 1000 nM	< 1000 nM	
